The series is described as follows: In vivo pharmacokinetic studies of pyridyl substituted ketolides in rats (plasma and whole lung, LC-MS-MS). As to conditions: male Sprague-Dawley rats; for clearance / Vd / AUC / bioavailability / half-life / Kp: rat; for clearance / Vd: IV = 5 mg/kg, PO = 15 mg/kg; for clearance: read-out: CL (clearance of the compound from plasma); for Vd: read-out: Vss (volume of distribution); for bioavailability: read-out: F, PO (% bioavailability); for Kp: whole lung vs plasma, read-out: L/P ratio, IV (ratio of drug in lung/plasma after IV dosing). Here is the method:
Animal Models. A total of 54 male Sprague-Dawley rats, weighing 200 grams in average, are evaluated for pharmacokinetic studies of representative substituted pyridyl ketolides. Rats are under overnight food restriction and receive water ad libitum. Rats are acclimated for approximately 5 days before antibiotic administration. Antibiotic Administration. Rats are given bolus administration through intravenous (IV) and oral (PO) routes. Representative substituted pyridyl ketolides and telithromycin, for comparison, are diluted in 0.85% saline to a concentration of 15.0 mg/ml, and the resulting pH is adjusted using 1N acetic acid until the compound is in solution. Approximately 200 μl of the compound solution is administered to the rats. The target dose for IV and PO administration is 5 mg/kg and 15 mg/kg, respectively. Sample Collection. Plasma and whole lung samples are collected from the rats. Plasma samples are obtained from blood samples by centrifugation at 3000 RPM for 10 min. Heparin is added in the plasma as an anticoagulant. Whole lung samples are homogenized in deionized water. Samples are stored at −80° C. A total of 9 time points are collected in triplicate at 0.083, 0.25, 0.5, 1, 2, 4, 6, 8, and 24 h. Ketolide concentrations in plasma and lung are determined by well-established non-GLP LC-MS-MS methods. PK parameters are estimated from the raw bioanalytical data using WinNolin software (Version 4.0, Pharsight Corporation, CA). All representative compounds are compared to telithromycin.

The mark [1] stands for this setting: plasma, PO 15 mg/kg vs IV 5 mg/kg.
Setting [2] is: IV bolus 5 mg/kg, plasma, read-out: t1/2, IV Plasma (converted).
Where [3] appears, read: PO 15 mg/kg, plasma, read-out: t1/2, PO Plasma (converted).

Where two headings read alike, the source gives them in different places.

As to `CC[C@H]1OC(=O)[C@H](C)C(=O)[C@H](C)[C@@H](O[C@@H]2O[C@H](C)C[C@H](N(C)C)[C@H]2O)[C@@](C)(OC)C[C@@H](C)C(=O)[C@H](C)[C@H]2N(CCCCn3cnc(-c4ccc(C)nc4)c3)C(=O)O[C@]12C` [Cmpd B], for the setting “plasma”, the clearance worked out at 48 mL/min/kg and the Vd came to 6.5 L/kg. Under “plasma, IV bolus 5 mg/kg”, this compound registered an AUC of 1700 ng·h/mL. Also, the bioavailability under setting [1] was 54%. Under setting [2], the half-life was 1.8 h. Further, the Kp (IV bolus 5 mg/kg) was 27. Further, the half-life under setting [3] was 3.3 h.

Turning to `CC[C@H]1OC(=O)[C@H](C)C(=O)[C@H](C)[C@@H](OC2O[C@H](C)C[C@H](N(C)C)[C@H]2O)[C@@](C)(OC)C[C@@H](C)C(=O)[C@H](C)[C@H]2N(CCCCn3cnc(-c4ccc(OC)nc4)c3)C(=O)O[C@]12C` (some centres unmarked) [Cmpd D], under “plasma”, the clearance came to 25 mL/min/kg and the Vd was 4.3 L/kg. Under “plasma, IV bolus 5 mg/kg”, the AUC was found to be 3000 ng·h/mL. For the same compound, the bioavailability under setting [1] was determined as 100%. Under setting [2], the half-life was 2.1 h. In addition, for the setting “IV bolus 5 mg/kg”, the Kp came out at 32.

As to `CC[C@H]1OC(=O)[C@H](C)C(=O)[C@H](C)[C@@H](O[C@@H]2O[C@H](C)C[C@H](N(C)C)[C@H]2O)[C@@](C)(OC)C[C@@H](C)C(=O)[C@H](C)[C@H]2N(CCCCn3cnc(-c4ccc(Cl)nc4)c3)C(=O)O[C@]12C` [Cmpd E], for the setting “plasma”, the clearance is 38 mL/min/kg and the Vd is 5.6 L/kg. The compound further displayed an AUC (plasma, IV bolus 5 mg/kg) of 2200 ng·h/mL. Moreover, the bioavailability under setting [1] was 86%. In addition, the half-life under setting [2] is 1.6 h. Also, where the note is “IV bolus 5 mg/kg”, the Kp stood at 29. For the same compound, the half-life under setting [3] was 3.3 h.

Regarding `CC[C@H]1OC(=O)[C@H](C)C(=O)[C@H](C)[C@@H](O[C@@H]2O[C@H](C)C[C@H](N(C)C)[C@H]2O)[C@](C)(OC)C[C@@H](C)C(=O)[C@H](C)[C@H]2N(CCCCn3cnc(-c4cccnc4)c3)C(=O)O[C@]12C` [Telithromycin, telithromycin, reference compound], the “t1/2, IV Plasma” value (IV bolus 5 mg/kg, plasma) was 1.0 h. Also, the “F, PO (% bioavailability)” value (PO 15 mg/kg vs IV 5 mg/kg) is 11%. Also, the “t1/2, PO Plasma” value (PO 15 mg/kg, plasma) is 1.5 h. Moreover, for the setting “plasma”, the clearance stood at 100 mL/min/kg and the Vd was found to be 5 L/kg. In addition, the Kp (IV bolus 5 mg/kg) is 16.

Values taken from patent US7163924B2, “Ketolide derivatives” (Chiron Corporation, priority 2003, dated 2007).
